Test results from paper PMC10003159, “Transcytosable Peptide-Paclitaxel Prodrug Nanoparticle for Targeted Treatment of Triple-Negative Breast Cancer” (International Journal of Molecular Sciences, 2023).
Where a SMILES comes first, the peptide text is derived from it. Where no end group is shown, it is not given here. The star is where a group is joined. X1 = CC(=O)O[C@H]1C(=O)[C@@]2(C)[C@H]([C@H](OC(=O)c3ccccc3)[C@]3(O)C[C@H](OC(=O)[C@H](OC(=O)CCC(=O)NCCN4C(=O)CC(*)C4=O)[C@@H](NC(=O)c4ccccc4)c4ccccc4)C(C)=C1C3(C)C)[C@]1(OC(C)=O)CO[C@@H]1C[C@@H]2O

Key:
EA.hy926 cells = experiment: Cytotoxicity against normal cells; type: cell-based; conditions: Figure S5, n = 3
4T1-mCherry-Luc cells = experiment: Wound healing migration assay; type: cell-based; conditions: 24 h, mean ± SEM, n = 3
Experimental: The effect of PTX-SM-TAR NPs and PTX on 4T1-mCherry-Luc cell migration was evaluated with wound-healing assay. 4T1-mCherry-Luc cells were seeded in 6-well plates at a density of 3 × 10^5 cells per well. After overnight culture, the cells were wounded linearly by a 200 µL pipette tip. […] Images of 0 and 24 h were captured by an inverted microscope.

4T1-mCherry-Luc tumor = experiment: In vivo antitumor efficacy, subcutaneous TNBC model; parameters: species or system mice; conditions: tail vein every two days, 16 d, n = 7
Experimental: Healthy female BALB/c mice (18–20 g) were purchased from Shandong University Laboratory Animal Center. Mice were housed in a pathogen-free environment under conditions of 25 ± 2 °C, 50 ± 5% relative humidity, and 12-h light/dark cycles. They were provided with food and water ad libitum. All animal experiment protocols were approved by the Ethics Committee of School of Pharmaceutical Sciences, Shandong University (22017) and implemented according to the regulations of the Shandong Council on Animal Care. To establish the mice TNBC model, 1.0 × 10^6 4T1-mCherry-Luc cells were subcutaneously injected into the left forelimb armpit of mice. […] solution was injected into mice through the abdominal and reacted with 4T1-mCherry-Luc cells to produce bioluminescence. Then, the fluorescence signals were observed and counted by an IVIS Spectrum imaging system (IVIS Kinetic).
Four days after tumor cell implantation, mice were randomly divided into four groups (n = 7). Seven mice in each group, a total of twenty-eight mice were used. Then, saline, TAR peptide (10.6 mg/kg), PTX (4 mg/kg), and PTX-SM-TAR NPs (15.6 mg/kg) were injected through the tail vein every two days. Tumor size and body weight were measured every 4 d. After 16 d of treatment, mice were sacrificed and tumors were removed, weighed, and further analyzed.

[1] = tested on: 4T1-mCherry-Luc 3D tumor spheroids; experiment: Penetration in 3D tumor spheroids; type: cell-based; conditions: 4 h incubation, LSCM, scanned at 10 μm interval
Experimental: After adding 150–200 μL of 2% agarose solution to each well, the 48-well plate was placed on the ultra-clean bench under UV irradiation for 30 min before solidification. The 4T1-mCherry-Luc cells were planted into the plate at the density of 4 × 10^4 cells per well and cultured in the incubator for one week. After the cells aggregated into spherical shapes, tumor spheroids were transferred to confocal dishes and incubated with PTX-SM-TAR/C6 NPs and coumarin-6 solution for 2 and 4 h. The tumor spheroids were washed with PBS, fixed with 4% paraformaldehyde for 30 min, and observed with LSCM.

Neuropilin 1 (NRP-1) = Neuropilin 1 (NRP-1) (UniProt O14786 22-923, The paper says only 'purified NRP-1 protein', immobilized on a CM5 chip. Species, construct and supplier are not printed. Human ectodomain (signal peptide removed, extracellular 22-856) is taken by co); experiment: SPR; Biacore T200; purified NRP-1 immobilised on a CM5 chip; gradient-diluted TAR peptide flowed over; HBS-EP running buffer; conditions: both partners purified
Neuropilin 1 (NRP-1), sequence (O14786 22-923): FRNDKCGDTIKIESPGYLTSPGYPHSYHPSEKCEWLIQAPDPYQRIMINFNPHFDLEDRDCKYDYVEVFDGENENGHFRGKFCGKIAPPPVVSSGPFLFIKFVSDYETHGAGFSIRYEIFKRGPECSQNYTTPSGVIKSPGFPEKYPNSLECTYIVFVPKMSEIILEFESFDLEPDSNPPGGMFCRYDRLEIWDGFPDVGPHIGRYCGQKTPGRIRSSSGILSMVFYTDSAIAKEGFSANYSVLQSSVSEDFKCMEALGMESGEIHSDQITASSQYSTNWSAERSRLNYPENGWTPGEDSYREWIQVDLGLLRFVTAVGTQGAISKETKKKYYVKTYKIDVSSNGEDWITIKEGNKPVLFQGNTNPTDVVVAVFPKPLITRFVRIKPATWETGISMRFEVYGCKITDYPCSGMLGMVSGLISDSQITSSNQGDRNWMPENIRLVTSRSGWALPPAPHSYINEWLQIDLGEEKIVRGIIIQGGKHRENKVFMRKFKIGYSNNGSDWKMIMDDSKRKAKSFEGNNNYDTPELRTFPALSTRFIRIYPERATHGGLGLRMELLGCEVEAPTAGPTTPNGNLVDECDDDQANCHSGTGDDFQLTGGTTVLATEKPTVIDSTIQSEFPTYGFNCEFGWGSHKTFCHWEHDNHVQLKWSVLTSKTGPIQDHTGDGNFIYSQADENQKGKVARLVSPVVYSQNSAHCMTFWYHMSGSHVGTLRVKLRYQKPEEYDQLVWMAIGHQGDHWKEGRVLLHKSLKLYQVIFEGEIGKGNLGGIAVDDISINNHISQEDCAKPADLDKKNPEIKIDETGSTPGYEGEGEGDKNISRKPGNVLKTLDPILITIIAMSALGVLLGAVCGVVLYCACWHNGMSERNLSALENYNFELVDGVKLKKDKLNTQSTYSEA

## CC(=O)O[C@H]1C(=O)[C@@]2(C)[C@H]([C@H](OC(=O)c3ccccc3)[C@]3(O)C[C@H](OC(=O)[C@H](O)[C@@H](NC(=O)c4ccccc4)c4ccccc4)C(C)=C1C3(C)C)[C@]1(OC(C)=O)CO[C@@H]1C[C@@H]2O [PTX, paclitaxel]
EA.hy926 cells
  toxicity to normal cells: slight toxicity to normal cells in the low-concentration
4T1-mCherry-Luc cells; 10 nM
  migration rate: 32.53 ± 1.43%
4T1-mCherry-Luc cells; 100 nM
  migration rate: 18.96 ± 2.76%
4T1-mCherry-Luc tumor
  body weight of mice during the experiment: remained stable
4T1-mCherry-Luc tumor; TAR 10.6 mg/kg, PTX 4 mg/kg, PTX-SM-TAR NPs 15.6 mg/kg, tumor weight
  tumor inhibition rate: 28.47%

## CC(=O)O[C@H]1C(=O)[C@@]2(C)[C@H]([C@H](OC(=O)c3ccccc3)[C@]3(O)C[C@H](OC(=O)[C@H](OC(=O)CCC(=O)NCCN4C(=O)CC(SC[C@H](N)C(=O)N[C@@H](CCCNC(=N)N)C(=O)N[C@@H](CCCCN)C(=O)N[C@@H](CCCCN)C(=O)N[C@@H](CCCNC(=N)N)C(=O)N[C@@H](CCCNC(=N)N)C(=O)N[C@@H](CCC(N)=O)C(=O)N[C@@H](CCCNC(=N)N)C(=O)N[C@@H](CCCNC(=N)N)C(=O)N[C@@H](CCCNC(=N)N)C(=O)N[C@@H](C)C(=O)N[C@H](C(=O)N[C@@H](Cc5c[nH]c6ccccc56)C(=O)N[C@@H](CC(C)C)C(=O)N5CCC[C@H]5C(=O)N5CCC[C@H]5C(=O)N[C@@H](CCCNC(=N)N)C(=O)O)[C@@H](C)O)C4=O)[C@@H](NC(=O)c4ccccc4)c4ccccc4)C(C)=C1C3(C)C)[C@]1(OC(C)=O)CO[C@@H]1C[C@@H]2O (stereo partly shown) [PTX-SM-TAR NPs] (H-C(X1)RKKRRQRRRATWLPPR-OH)
EA.hy926 cells
  toxicity to normal cells: same trend as the PTX
4T1-mCherry-Luc tumor
  body weight of mice during the experiment: remained stable

## CCN(CC)c1ccc2cc(-c3nc4ccccc4s3)c(=O)oc2c1 [coumarin-6]
[1]
  fluorescence distribution in tumor spheroids along Z-axis: gradually disappeared after the Z-axis exceeded 60 μm

## CRKKRRQRRRATWLPPR [TAR]
4T1-mCherry-Luc tumor
  body weight of mice during the experiment: remained stable

B1: TAR peptide (peptide)
peptide: CRKKRRQRRRATWLPPR
notes: also called fused peptide TAR; bifunctional fusion peptide of TAT and A7R; source: synthetic peptide (China Peptide Co., Ltd.)
Neuropilin 1 (NRP-1)
  Kd: 34 nM
